Starred links: 1 amine or outer side, 2 acyl side, 3 side chain; linkers in the order of their positions; H or OH if unused. Non-standard residues stand in square brackets, D forms with d. Residues, ends and D or L forms follow the SMILES beside them. Groups on a side chain read outwards from the residue. *: point of attachment. X1 = CCCCCCCCCCCCCCCC(=O)N[C@@H](CCC(=O)N[C@@H](CCC(=O)N[C@@H](CCC(=O)NCCCOCCOCCOCCCNC(=O)CCC(=O)NCCCOCCOCCOCCCNC(=O)CCC(=O)NCCCOCCOCCOCCCN*)C(=O)O)C(=O)O)C(=O)O; X9 = CCCCCCCCCCCCCCCC(=O)N[C@@H](CCC(=O)N[C@@H](CCC(=O)NCCCOCCOCCOCCCNC(=O)CCC(=O)NCCCOCCOCCOCCCN*)C(=O)O)C(=O)O; Suc = O=C(CCC(=O)[*:2])[*:1]; αMeK = C[C@](N)(CCCCN)C(=O)O; Aib = CC(C)(N)C(=O)O
Molecular target: T1, RXFP1 (Homo sapiens, UniProt Q9HBX9)
T1 construct: OVCAR5 cells expressing endogenous RXFP1; endogenous in cells; host or cells: OVCAR5
T1 sequence (Q9HBX9 1-757): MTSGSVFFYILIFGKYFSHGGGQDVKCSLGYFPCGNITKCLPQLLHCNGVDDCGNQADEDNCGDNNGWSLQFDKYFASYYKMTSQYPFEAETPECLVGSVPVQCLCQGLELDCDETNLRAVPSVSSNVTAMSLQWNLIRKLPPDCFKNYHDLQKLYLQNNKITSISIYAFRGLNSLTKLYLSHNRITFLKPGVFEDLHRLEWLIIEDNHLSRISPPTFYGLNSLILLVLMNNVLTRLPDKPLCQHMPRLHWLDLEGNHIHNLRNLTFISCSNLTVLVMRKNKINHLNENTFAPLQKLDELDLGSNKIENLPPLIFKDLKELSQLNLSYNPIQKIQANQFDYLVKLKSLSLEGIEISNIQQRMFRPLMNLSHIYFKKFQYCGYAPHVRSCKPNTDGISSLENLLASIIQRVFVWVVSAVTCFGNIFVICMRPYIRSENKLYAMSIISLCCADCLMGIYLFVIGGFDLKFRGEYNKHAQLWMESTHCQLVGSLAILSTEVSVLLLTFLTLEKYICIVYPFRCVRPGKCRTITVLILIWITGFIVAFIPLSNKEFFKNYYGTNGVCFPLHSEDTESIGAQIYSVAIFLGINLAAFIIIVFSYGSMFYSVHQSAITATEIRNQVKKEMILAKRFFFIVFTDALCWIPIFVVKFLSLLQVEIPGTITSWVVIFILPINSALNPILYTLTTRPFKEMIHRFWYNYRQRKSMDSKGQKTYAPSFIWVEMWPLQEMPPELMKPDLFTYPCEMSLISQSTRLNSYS
Experiment: OVCAR5 cAMP assay (HTRF)
Format: cell-based
Conditions: for EC50: OVCAR 5 cells expressing endogenous RXFP1, cAMP readout; for Emax: OVCAR 5 cells, maximal cAMP relative to H2-relaxin
Procedure, shortened: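 Endogenous RXFP1 in OVCAR5 cells, pretreated 40 min at 37° C with 1 mM IBMX, then exposed to increasing peptide concentrations in serum-free medium for 30 min at 37° C. cAMP read by HTRF; EC50 by variable-slope sigmoidal fit, Emax as % of H2-relaxin maximal cAMP in same run.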

Row | Structure (SMILES) | EC50 | Emax
1 | CCCCCCCCCCCCCCCC(=O)N[C@@H](CCC(=O)N[C@@H](CCC(=O)N[C@@H](CCC(=O)NCCCOCCOCCOCCCNC(=O)CCC(=O)NCCCOCCOCCOCCCNC(=O)CCC(=O)NCCCOCCOCCOCCCNC(=O)CCC(=O)NCCCC[C@H](NC(=O)CNC(=O)[C@H](CCC(=O)O)NC(=O)C(C)(C)NC(=O)C(C)(C)NC(=O)[C@@H](NC(=O)[C@H](CCCCNC(C)=O)NC(=O)[C@H](C)NC(=O)[C@H](CCCNC(=N)N)NC(=O)[C@@H](NC(=O)[C@H](CCCCN)NC(=O)[C@H](CCC(=O)O)NC(=O)[C@H](CCCNC(=N)N)NC(=O)CNC(=O)[C@H](CCC(=O)O)NC(=O)[C@H](CC(C)C)NC(C)=O)C(C)C)[C@@H](C)CC)C(=O)N[C@@H](CO)C(=O)N[C@H](C(=O)N[C@@H](Cc1ccccc1)C(=O)N[C@@H](CO)C(=O)N[C@H](CCCCN)C(=O)N[C@@H](CCCNC(=N)N)C(=O)N[C@@H](C)C(=O)N[C@@H](CCCCNC(C)=O)C(N)=O)[C@@H](C)O)C(=O)O)C(=O)O)C(=O)O [compound 36] (Ac-LEGREKVRAK(Ac)I[Aib][Aib]EGK([Suc-X1])STFS[dK]RAK(Ac)-NH2) | 3.6 nM | 93%
2 | CCCCCCCCCCCCCCCC(=O)N[C@@H](CCC(=O)N[C@@H](CCC(=O)N[C@@H](CCC(=O)NCCCOCCOCCOCCCNC(=O)CCC(=O)NCCCOCCOCCOCCCNC(=O)CCC(=O)NCCCOCCOCCOCCCNC(=O)CCC(=O)NCCCC[C@H](NC(=O)CNC(=O)[C@H](CCC(=O)O)NC(=O)C(C)(C)NC(=O)C(C)(C)NC(=O)[C@@H](NC(=O)[C@H](CCCCNC(C)=O)NC(=O)[C@H](C)NC(=O)[C@H](CCCNC(=N)N)NC(=O)[C@@H](NC(=O)[C@H](Cc1ccccc1)NC(=O)[C@H](CCC(=O)O)NC(=O)[C@H](CCCNC(=N)N)NC(=O)CNC(=O)[C@H](CCC(=O)O)NC(=O)[C@H](CC(C)C)NC(C)=O)C(C)C)[C@@H](C)CC)C(=O)N[C@@H](CO)C(=O)N[C@H](C(=O)N[C@@H](Cc1c[nH]c2ccccc12)C(=O)N[C@@H](CO)C(=O)NC(C)(C)C(=O)N[C@@H](CCCNC(=N)N)C(=O)N[C@@H](CCCNC(=N)N)C(=O)N[C@@H](CCCCNC(C)=O)C(N)=O)[C@@H](C)O)C(=O)O)C(=O)O)C(=O)O [compound 39] (Ac-LEGREFVRAK(Ac)I[Aib][Aib]EGK([Suc-X1])STWS[Aib]RRK(Ac)-NH2) | 8.7 nM | 93%
3 | CCCCCCCCCCCCCCCC(=O)N[C@@H](CCC(=O)N[C@@H](CCC(=O)N[C@@H](CCC(=O)NCCCOCCOCCOCCCNC(=O)CCC(=O)NCCCOCCOCCOCCCNC(=O)CCC(=O)NCCCOCCOCCOCCCNC(=O)CCC(=O)NCCCC[C@H](NC(=O)CNC(=O)[C@H](CCC(=O)O)NC(=O)C(C)(C)NC(=O)C(C)(C)NC(=O)[C@@H](NC(=O)[C@H](CCCCNC(C)=O)NC(=O)[C@H](C)NC(=O)[C@H](CCCNC(=N)N)NC(=O)[C@@H](NC(=O)[C@H](CCCCN)NC(=O)[C@H](CCC(=O)O)NC(=O)[C@H](CCCNC(=N)N)NC(=O)CNC(=O)[C@H](CCC(=O)O)NC(=O)[C@H](CC(C)C)NC(C)=O)C(C)C)[C@@H](C)CC)C(=O)N[C@@H](CO)C(=O)N[C@H](C(=O)N[C@@H](Cc1c[nH]c2ccccc12)C(=O)NC(C)(C)C(=O)N[C@@H](CCCCN)C(=O)N[C@@H](CCCNC(=N)N)C(=O)N[C@@H](C)C(=O)N[C@@H](CCCCNC(C)=O)C(N)=O)[C@@H](C)O)C(=O)O)C(=O)O)C(=O)O [compound 35] (Ac-LEGREKVRAK(Ac)I[Aib][Aib]EGK([Suc-X1])STW[Aib]KRAK(Ac)-NH2) | 2.33 nM | 91%
4 | CCCCCCCCCCCCCCCC(=O)N[C@@H](CCC(=O)N[C@@H](CCC(=O)N[C@@H](CCC(=O)NCCCOCCOCCOCCCNC(=O)CCC(=O)NCCCOCCOCCOCCCNC(=O)CCC(=O)NCCCOCCOCCOCCCNC(=O)CCC(=O)NCCCC[C@H](NC(=O)CNC(=O)[C@H](CCC(=O)O)NC(=O)C(C)(C)NC(=O)C(C)(C)NC(=O)[C@@H](NC(=O)[C@H](CCCCNC(C)=O)NC(=O)[C@H](C)NC(=O)[C@H](CCCNC(=N)N)NC(=O)[C@@H](NC(=O)[C@H](CCCCN)NC(=O)[C@H](CCC(=O)O)NC(=O)[C@H](CCCNC(=N)N)NC(=O)CNC(=O)[C@H](CCC(=O)O)NC(=O)[C@H](CC(C)C)NC(C)=O)C(C)C)[C@@H](C)CC)C(=O)N[C@@H](CO)C(=O)N[C@H](C(=O)N[C@@H](Cc1c[nH]c2ccccc12)C(=O)N[C@@H](CO)C(=O)NC(C)(C)C(=O)N[C@@H](CCCNC(=N)N)C(=O)N[C@@H](CCCCN)C(=O)N[C@@H](CCCCNC(C)=O)C(N)=O)[C@@H](C)O)C(=O)O)C(=O)O)C(=O)O [compound 1] (Ac-LEGREKVRAK(Ac)I[Aib][Aib]EGK([Suc-X1])STWS[Aib]RKK(Ac)-NH2) | 1.5 nM | 99%

The next molecules have a lower EC50 than those just listed; values first:

Row | EC50 | Emax | Structure (SMILES)
5 | 0.48 nM | 95% | CCCCCCCCCCCCCCCC(=O)N[C@@H](CCC(=O)N[C@@H](CCC(=O)N[C@@H](CCC(=O)NCCCOCCOCCOCCCNC(=O)CCC(=O)NCCCOCCOCCOCCCNC(=O)CCC(=O)NCCCOCCOCCOCCCNC(=O)CCC(=O)NCCCC[C@H](NC(=O)CNC(=O)[C@H](CCC(=O)O)NC(=O)C(C)(C)NC(=O)C(C)(C)NC(=O)[C@@H](NC(=O)[C@H](CCCCNC(C)=O)NC(=O)[C@H](C)NC(=O)[C@H](CCCNC(=N)N)NC(=O)[C@@H](NC(=O)[C@H](CCCNC(=N)N)NC(=O)[C@H](CCC(=O)O)NC(=O)[C@H](CCCNC(=N)N)NC(=O)CNC(=O)[C@H](CCC(=O)O)NC(=O)[C@H](CC(C)C)NC(C)=O)C(C)C)[C@@H](C)CC)C(=O)N[C@@H](CO)C(=O)N[C@H](C(=O)N[C@@H](Cc1c[nH]c2ccccc12)C(=O)N[C@@H](CO)C(=O)NC(C)(C)C(=O)N[C@@H](CCCNC(=N)N)C(=O)N[C@@H](CCCCN)C(=O)N[C@@H](CCCCNC(C)=O)C(N)=O)[C@@H](C)O)C(=O)O)C(=O)O)C(=O)O [compound 67] (Ac-LEGRERVRAK(Ac)I[Aib][Aib]EGK([Suc-X1])STWS[Aib]RKK(Ac)-NH2)
6 | 0.18 nM | 96% | CCCCCCCCCCCCCCCC(=O)N[C@@H](CCC(=O)N[C@@H](CCC(=O)N[C@@H](CCC(=O)NCCCOCCOCCOCCCNC(=O)CCC(=O)NCCCOCCOCCOCCCNC(=O)CCC(=O)NCCCOCCOCCOCCCNC(=O)CCC(=O)NCCCC[C@H](NC(=O)CNC(=O)[C@H](CCC(=O)O)NC(=O)C(C)(C)NC(=O)C(C)(C)NC(=O)[C@@H](NC(=O)[C@H](CCCCNC(C)=O)NC(=O)[C@H](C)NC(=O)[C@H](CCCNC(=N)N)NC(=O)[C@@H](NC(=O)[C@H](CCCNC(=N)N)NC(=O)[C@H](CCC(=O)O)NC(=O)[C@H](CCCNC(=N)N)NC(=O)CNC(=O)[C@H](CCC(=O)O)NC(=O)[C@H](CC(C)C)NC(C)=O)C(C)C)[C@@H](C)CC)C(=O)N[C@@H](CO)C(=O)N[C@H](C(=O)N[C@@H](Cc1ccccc1)C(=O)N[C@@H](CO)C(=O)NC(C)(C)C(=O)N[C@@H](CCCNC(=N)N)C(=O)N[C@@H](CCCNC(=N)N)C(=O)N[C@@H](CCCCNC(C)=O)C(N)=O)[C@@H](C)O)C(=O)O)C(=O)O)C(=O)O [compound 76] (Ac-LEGRERVRAK(Ac)I[Aib][Aib]EGK([Suc-X1])STFS[Aib]RRK(Ac)-NH2)
7 | 0.7 nM | 93% | CCCCCCCCCCCCCCCC(=O)N[C@@H](CCC(=O)N[C@@H](CCC(=O)NCCCOCCOCCOCCCNC(=O)CCC(=O)NCCCOCCOCCOCCCNC(=O)CCC(=O)NCCCC[C@H](NC(=O)CNC(=O)[C@H](CCC(=O)O)NC(=O)C(C)(C)NC(=O)C(C)(C)NC(=O)[C@@H](NC(=O)[C@H](CCCCNC(C)=O)NC(=O)[C@H](C)NC(=O)[C@H](CCCNC(=N)N)NC(=O)[C@@H](NC(=O)[C@H](CCCCN)NC(=O)[C@H](CCC(=O)O)NC(=O)[C@H](CCCNC(=N)N)NC(=O)CNC(=O)[C@H](CCC(=O)O)NC(=O)[C@H](CC(C)C)NC(C)=O)C(C)C)[C@@H](C)CC)C(=O)N[C@@H](CO)C(=O)N[C@H](C(=O)N[C@@H](Cc1ccccc1)C(=O)N[C@@H](CO)C(=O)N[C@@](C)(CCCCN)C(=O)N[C@@H](CCCNC(=N)N)C(=O)N[C@@H](C)C(=O)N[C@@H](CCCCNC(C)=O)C(N)=O)[C@@H](C)O)C(=O)O)C(=O)O [compound 9] (Ac-LEGREKVRAK(Ac)I[Aib][Aib]EGK([Suc-X9])STFS[αMeK]RAK(Ac)-NH2)
